# In PMC3091868, “A Novel Structural Framework for α1A/D-Adrenoceptor Selective Antagonists Identified Using Subtype Selective Pharmacophores” (PLoS ONE, 2011):
# Read-outs that look alike come from different tables or passages of the source.
# How the values were obtained:
# [1] = molecular target: T1, α1A-AR (Rattus norvegicus, UniProt P43140); assay: [3H]Prazosin competition/saturation binding on COS-1 membranes expressing α1A-AR; parameters: species or system rodent; conditions: for Ki: [3H]Prazosin 200 pM, COS-1 membranes
# T1 construct: expressed in transfected cells; host or cells: COS-1
# T1 sequence (P43140 1-466): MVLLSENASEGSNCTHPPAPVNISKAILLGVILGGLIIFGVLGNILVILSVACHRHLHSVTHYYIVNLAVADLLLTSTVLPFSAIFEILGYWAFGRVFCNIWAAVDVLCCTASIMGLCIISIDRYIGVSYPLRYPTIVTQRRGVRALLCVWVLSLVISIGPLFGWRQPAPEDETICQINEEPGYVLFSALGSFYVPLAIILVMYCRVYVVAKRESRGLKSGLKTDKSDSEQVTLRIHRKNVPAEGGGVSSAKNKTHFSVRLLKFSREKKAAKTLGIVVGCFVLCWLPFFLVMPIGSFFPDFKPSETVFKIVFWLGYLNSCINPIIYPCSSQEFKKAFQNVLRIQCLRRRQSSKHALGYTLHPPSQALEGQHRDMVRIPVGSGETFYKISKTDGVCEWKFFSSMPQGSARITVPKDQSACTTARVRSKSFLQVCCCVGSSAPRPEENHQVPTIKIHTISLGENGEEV
# Protocol: (§1) COS-1 cells (American Type Culture Collection, Manassas, VA) were cultured in Dulbecco's modified Eagle's medium (DMEM) supplemented with 10% (v/v) heat inactivated fetal bovine serum (FBS), 100 µg ml^−1 penicillin and 100 µg ml^−1 streptomycin. Cells were maintained and passaged upon reaching confluence by standard cell culture techniques. pMT4 plasmids containing rodent α1-AR (a kind gift from Prof R Graham, Victor Chang Cardiac Research Institute, Australia) were used to transfect cells. Transient expression in COS-1 cells was accomplished using two techniques; the diethylaminoethane-dextran (DEAE-dextran) and Lipofectamine 2000 (Invitrogen, Carlsbad, CA, USA) methods. Briefly, the DEAE-dextran method involved washing of cells with phosphate buffered saline (PBS), followed by the addition of the DNA mixture (12–25 µg/4×10^6 cells) in DEAE-dextran (10 mg ml^−1) to cells at 60–80% confluency. Following a 3 h incubation, a PBS wash with 10% DMSO was used to shock the cells. Cells were harvested 72 h post transfection. For the Lipofectamine 2000 method, cells were incubated for 12 h with Opti-MEM (GIBCO BRL, Gaithersburg, MD, USA) containing Lipofectamine 2000.
# (§2) Membranes were prepared as described previously. Briefly, COS-1 cells were transiently transfected using the DEAE-dextran method. […] Protein concentration was determined using Bradford reagent (Sigma, St Louis, MO, USA).
# (§3) For all binding experiments, the reaction mixture was incubated for 1 h at room temperature, stopped by the addition of 4°C PBS and filtered with a Brandel cell harvester (Gaithersburg, MD, USA) on GF/C filters. Nonspecific binding was defined as binding in the presence of 100 µM phentolamine hydrochloride.
# (§4) Nonlinear regression analysis of saturation and competition binding assay data was performed using the […] curve fitting program GraphPad Prism (San Diego, CA, USA). […] The competitive binding data for each ligand was tested for both one and two -site binding.
# [2] = molecular target: T2, α1B-AR (Mesocricetus auratus, UniProt P18841); assay: [3H]Prazosin competition/saturation binding on COS-1 membranes expressing α1B-AR; parameters: species or system rodent; conditions: [3H]Prazosin 200 pM, COS-1 membranes
# T2 construct: expressed in transfected cells; host or cells: COS-1
# T2 sequence (P18841 1-515): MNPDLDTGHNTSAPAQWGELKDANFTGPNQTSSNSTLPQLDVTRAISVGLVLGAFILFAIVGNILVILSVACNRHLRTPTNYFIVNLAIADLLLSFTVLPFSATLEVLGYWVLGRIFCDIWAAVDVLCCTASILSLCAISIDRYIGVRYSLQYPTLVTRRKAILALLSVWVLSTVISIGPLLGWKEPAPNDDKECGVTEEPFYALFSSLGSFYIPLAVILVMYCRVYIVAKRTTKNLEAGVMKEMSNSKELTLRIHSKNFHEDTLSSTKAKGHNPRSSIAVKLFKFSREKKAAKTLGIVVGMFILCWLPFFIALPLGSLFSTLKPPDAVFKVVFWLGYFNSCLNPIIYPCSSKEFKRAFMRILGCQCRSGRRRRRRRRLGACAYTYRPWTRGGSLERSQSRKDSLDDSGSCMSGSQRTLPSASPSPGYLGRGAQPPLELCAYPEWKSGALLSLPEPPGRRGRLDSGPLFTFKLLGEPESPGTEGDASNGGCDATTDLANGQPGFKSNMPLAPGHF
# Protocol: as §1, §2, §3, §4
# [3] = molecular target: T3, α1D-AR (Rattus norvegicus, UniProt P23944); assay: [3H]Prazosin competition/saturation binding on COS-1 membranes expressing α1D-AR; parameters: species or system rodent; conditions: [3H]Prazosin 200 pM
# T3 construct: expressed in transfected cells; host or cells: COS-1
# T3 sequence (P23944 1-561): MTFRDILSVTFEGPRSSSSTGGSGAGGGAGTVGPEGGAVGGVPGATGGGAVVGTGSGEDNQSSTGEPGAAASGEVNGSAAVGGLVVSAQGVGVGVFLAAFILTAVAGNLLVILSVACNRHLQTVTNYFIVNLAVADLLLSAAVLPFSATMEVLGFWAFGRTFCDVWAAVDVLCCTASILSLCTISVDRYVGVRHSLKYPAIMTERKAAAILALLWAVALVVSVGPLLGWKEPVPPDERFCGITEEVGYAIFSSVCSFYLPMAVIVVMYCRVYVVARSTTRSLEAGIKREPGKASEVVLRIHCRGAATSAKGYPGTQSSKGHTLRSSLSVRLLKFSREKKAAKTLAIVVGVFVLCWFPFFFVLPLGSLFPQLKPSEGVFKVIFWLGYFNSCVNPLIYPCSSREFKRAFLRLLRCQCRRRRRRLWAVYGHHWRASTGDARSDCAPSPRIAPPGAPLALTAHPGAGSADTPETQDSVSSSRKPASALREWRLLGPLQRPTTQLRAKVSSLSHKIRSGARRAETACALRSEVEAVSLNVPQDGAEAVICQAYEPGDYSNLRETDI
# Protocol: as §1, §2, §3, §4
# [4] = molecular target: T1, α1A-AR; assay: Phosphatidylinositol hydrolysis (IP accumulation) assay in COS-1 cells expressing α1A-AR; assay type: cell-based, rodent; conditions: for IC50: 20 min compound, then 10 µM (-)-norepinephrine 30 min, COS-1 cells, read-out: pIC50, inhibition of norepinephrine induced IP accumulation at α1A-AR (converted)
# Protocol: as §1
# Accumulation of [^3H] inositol phosphates (IPs) was determined as described previously. Briefly, COS-1 cells were transiently transfected with α1A, α1B and α1D - AR pMT4 plasmids using the Lipofectamine method. 24 h after transfection, cells were seeded into 96 well plates and labelled overnight with 20 µCi ml^−1 [^3H]myo-inositol in inositol free DMEM supplemented with 5% charcoal stripped FBS. Cells were washed twice with inositol free DMEM, and incubated in inositol free DMEM for 2 h at 37°C. Cells were treated for 20 minutes with LiCl (20 mM) and propanolol (20 µM) in the presence or absence of tested compounds. Agonists were then added for 30 min, and the reaction was terminated by addition of 0.4 M formic acid. Cells were lysed by freeze thawing twice and were applied to AG 1-X8 columns. Total IPs were eluted with 1 M ammonium formate in 0.1 M formic acid. 200 µL of eluted sample was diluted with 1 mL reverse osmosis water and 5 mL Ultimaflow scintillation fluid (Perkin Elmer), and were counted in a liquid scintillation counter.
# Compounds were administered alone (100 µM) or prior to the addition of 10 µM […], to screen for agonist or antagonist activity respectively.
# Figure 2 Inhibition of norepinephrine induced inositol phosphate (IP) accumulation at α1A- AR. α1A-AR transfected cells labelled overnight with [^3H]- myo-inositol were treated with indicated concentrations (300 µM – 0.1 µM) of test compounds, 1 (▪), 2 (▵), and 11 (○), for 20 min. This was followed by a 30 min. stimulation with 10 µM (-)- norepinephrine, following which total IP accumulation was determined. Data was normalized against basal COS-1 cell IP production and expressed as a percentage of the (-)-norepinephrine-stimulated maximal IP response of that receptor subtype. The data represented the mean ± SE of a single experiment (n = 4–5), performed in triplicate.
# Figure 3 Inositol phosphate (IP) accumulation in the presence of norepinephrine and compound 8 at the α1A- adrenoceptor (AR). α1A-AR transfected cells were labelled with [^3H]- myo-inositol. Following a 20 min. treatment with lithium chloride (20 mM) and propanolol (20 µM) the cells were stimulated with the indicated concentrations (300 µM − 0.1 µM) of (-) norepinephrine (•) or compound 8 (▪) for 30 min. Total inositol phosphate (IP) accumulation was determined as described under “Materials and Methods”. Data was normalized against basal COS-1 cell IP production and expressed as a percentage of the (-)-norepinephrine-stimulated maximal IP response. The data represents the mean ± SE of three separate experiments (n = 3), performed in duplicate or triplicate.
# [5] = molecular target: all α1-AR subtypes; parameters: method as in PMID 9249248; conditions: cited from earlier work
# [6] = molecular target: T3, α1D-AR; assay: Phosphatidylinositol hydrolysis (IP accumulation) assay in COS-1 cells expressing α1D-AR; assay type: cell-based, rodent; conditions: 100 µM compound alone, agonist screen, n = 3
# Protocol: as §1, with “For the Lipofectamine 2000 method, cells were incubated for 12 h with Opti-MEM (GIBCO BRL, Gaithersburg, MD, USA) containing Lipofectamine 2000.” left out
# Accumulation of [^3H] inositol phosphates (IPs) was determined as described previously. […] 200 µL of eluted sample was diluted with 1 mL reverse osmosis water and 5 mL Ultimaflow scintillation fluid (Perkin Elmer), and were counted in a liquid scintillation counter. […]
# [7] = antilog of mean pKi, Cheng-Prusoff, read-out: Ki α1A-AR
# [8] = antilog of mean pKi, Cheng-Prusoff, read-out: Ki α1B-AR
# [9] = antilog of mean pKi, Cheng-Prusoff, read-out: Ki α1D-AR
# [10] = pKi = -Log Ki, read-out: pKi α1D-AR (converted)
# [11] = pKi = -Log Ki, read-out: pKi α1A-AR (converted)
# [12] = pKi = -Log Ki, read-out: pKi α1B-AR (converted)
Structure (SMILES),"Ki [1, 7] [µM]","Ki [2, 8] [µM]","Ki [3, 9] [µM]","Ki [3, 10] [µM]","Ki [1, 11] [µM]","Ki [2, 12] [µM]","Maximal IP production, % of the (-) norepinephrine control ([4]; COS-1 cells expressing α1A-AR)","EC50 ([4]; COS-1 cells expressing α1A-AR, 30 min, n = 3, read-out: pEC50, increase in intracellular IP at α1A-AR (converted)) [µM]",selectivity for α1A-AR over α1B-AR ([1]; from binding affinities) [fold],selectivity for α1A-AR over α1D-AR ([1]; from binding affinities) [fold],IC50 [4] [µM],Ki [5] [µM],"IP production, compound alone, compared to control, α1A-AR ([4]; 100 µM compound alone, agonist screen, n = 3)","IP production, compound alone, compared to control, α1D-AR [6]"
COc1cccc(C=CCN2CCN(c3cccc(C(F)(F)F)c3)CC2)c1 [Compound 2],0.49,4.59,18.8,10.5,–,–,–,–,10,38,17,–,–,–
COc1cc2c(cc1OC)C1CC(C)=C(c3ccccc3)CN1CC2 (stereo not drawn) [Compound 11],2,11.8,1.6,1.51,1.78,11,–,–,7,–,13.2,–,–,–
COc1cc2nc(N3CCN(C(=O)c4ccco4)CC3)nc(N)c2cc1OC [prazosin],–,–,–,–,–,–,–,–,–,–,–,~0.0001,–,–
CCN(Cc1ccccc1)CC(O)c1cccc(Cl)c1 (stereo not drawn) [Compound 3],15.1,24.4,8.35,7.76,12.6,9.55,–,–,–,–,–,–,–,–

# Now from value to compound, other results behind:
"Ki [1, 7] [µM]","Ki [2, 8] [µM]","Ki [3, 9] [µM]","Ki [3, 10] [µM]","Ki [1, 11] [µM]","Ki [2, 12] [µM]","Maximal IP production, % of the (-) norepinephrine control ([4]; COS-1 cells expressing α1A-AR)","EC50 ([4]; COS-1 cells expressing α1A-AR, 30 min, n = 3, read-out: pEC50, increase in intracellular IP at α1A-AR (converted)) [µM]",Structure (SMILES),selectivity for α1A-AR over α1B-AR ([1]; from binding affinities) [fold],selectivity for α1A-AR over α1D-AR ([1]; from binding affinities) [fold],IC50 [4] [µM],Ki [5] [µM],"IP production, compound alone, compared to control, α1A-AR ([4]; 100 µM compound alone, agonist screen, n = 3)","IP production, compound alone, compared to control, α1D-AR [6]"
45.9,> 100,48.7,–,41.7,> 100,approximately 30%,5.5,CCCCCCCCN(CCCCCCCC)CC(O)c1ccccc1Cl (stereo not drawn) [Compound 8],–,–,–,–,distinct trend of increased IP production,distinct trend of increased IP production
20.3,38.5,–,9.77,14.8,17,–,–,CN(C)CC(C(=O)c1ccc(Br)cc1)C(Br)c1ccccc1 (stereo not drawn) [Compound 7],–,–,–,–,–,–
> 100,> 100,> 100,> 100,> 100,> 100,–,–,Cc1ccc(C(=O)/C(S)=C(\Nc2cccc(Cl)c2)[n+]2ccccc2)cc1 [Compound 10],–,–,–,–,–,–
